Experimental findings from US20090047368A1, “Polymeric polyphenol extracted from fermented tea, therapeutic agent for mitochondrial disease, preventive/therapeutic agent for diabetes mellitus, and food or beverage” (University Of Tsukuba, priority 2004, published 2009) are described below.

In the test the test system is B6 mice (C57BL). In words: Blood glucose in B6 mice, high- versus low-molecular-weight polyphenols. In kind it is in vivo. As to conditions: 0.27 mg/day intraperitoneal, 15 days. The protocol:
The procedures for the experiment were similar to those employed in Example 7. In this experiment, B6 mice (C57BL; purchased from CLEA Japan, Inc.) were used. […] The low-molecular-weight polyphenol group was given a PBS solution of epicatechin daily through intraperitonal injection at a dose of 0.27 mg/day. Blood samples were collected on the first day of the administration and 15 days thereafter for the measurement of blood glucose levels. […] The horizontal axis in the figure represents the number of days from the start of the administration. The vertical axis represents percentage (%) changes in blood glucose based on the blood glucose level on the first day at 100.

Take `Oc1cc(O)c2c(c1)O[C@H](c1ccc(O)c(O)c1)[C@H](O)C2` [low-molecular-weight polyphenols, epicatechin]: the “decrease in blood glucose relative to the first day (100)” value was “little change”.
